Data as given in ChEMBL document CHEMBL4219045 (Bioorg Med Chem, 2018).
Positions of bridges follow the written chain, without caps; N, C: chain ends. Residues, ends and D or L forms follow the SMILES beside them.

Key:
[1] = target: DPP4 (dipeptidyl peptidase 4) (Homo sapiens, UniProt P27487); test: Stability in plasma (unknown origin) assessed as DPP4-mediated drug degradation by measuring half life; format: ADME
[2] = target: Acetylcholine receptor subunit epsilon (Homo sapiens, UniProt Q04844); test: Inhibition of nAChR epsilon (unknown origin)
[3] = Toxicity in mouse; format: organism-based; settings: in vivo
[4] = target: Sodium channel protein type 2 subunit alpha (Homo sapiens, UniProt Q99250); test: Inhibition of Nav1.2 (unknown origin) expressed in xenopus oocytes at -80 mV holding potential by two-electrode voltage-clamp method; format: cell-based
[5] = target: Sodium channel protein type 5 subunit alpha (Homo sapiens, UniProt Q14524); test: Inhibition of Nav1.5 (unknown origin) expressed in xenopus oocytes at -80 mV holding potential by two-electrode voltage-clamp method; format: cell-based
[6] = target: Sodium channel protein type 8 subunit alpha (Homo sapiens, UniProt Q9UQD0); test: Inhibition of Nav1.6 (unknown origin)
[7] = target: T1, Transient receptor potential cation channel subfamily V member 6 (Homo sapiens, UniProt Q9H1D0); test: Inhibition of TRPV6 (unknown origin) expressed in HEK293 cells by whole cell patch clamp assay; format: cell-based
T1 sequence (Q9H1D0 whole entry): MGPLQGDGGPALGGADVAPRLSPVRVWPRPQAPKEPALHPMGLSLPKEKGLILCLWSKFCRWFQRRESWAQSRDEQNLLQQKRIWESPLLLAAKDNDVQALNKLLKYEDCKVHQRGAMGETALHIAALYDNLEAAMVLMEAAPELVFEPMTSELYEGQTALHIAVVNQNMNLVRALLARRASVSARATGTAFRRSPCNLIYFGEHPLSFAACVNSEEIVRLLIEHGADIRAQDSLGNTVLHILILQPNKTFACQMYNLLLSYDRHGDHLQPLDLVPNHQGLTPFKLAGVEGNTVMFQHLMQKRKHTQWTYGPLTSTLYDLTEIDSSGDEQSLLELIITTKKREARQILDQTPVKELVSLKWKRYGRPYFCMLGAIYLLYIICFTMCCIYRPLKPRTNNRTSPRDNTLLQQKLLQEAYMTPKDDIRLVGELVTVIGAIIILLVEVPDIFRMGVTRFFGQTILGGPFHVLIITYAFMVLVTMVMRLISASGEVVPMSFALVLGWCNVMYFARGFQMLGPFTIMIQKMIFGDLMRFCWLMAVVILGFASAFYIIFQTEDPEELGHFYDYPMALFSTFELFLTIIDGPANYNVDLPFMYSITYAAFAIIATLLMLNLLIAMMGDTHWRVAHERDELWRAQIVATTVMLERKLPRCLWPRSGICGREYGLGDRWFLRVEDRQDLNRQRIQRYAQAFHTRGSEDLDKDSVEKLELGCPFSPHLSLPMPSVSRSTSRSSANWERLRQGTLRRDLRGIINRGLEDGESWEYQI

Sequence of Sodium channel protein type 5 subunit alpha (Q14524 whole entry): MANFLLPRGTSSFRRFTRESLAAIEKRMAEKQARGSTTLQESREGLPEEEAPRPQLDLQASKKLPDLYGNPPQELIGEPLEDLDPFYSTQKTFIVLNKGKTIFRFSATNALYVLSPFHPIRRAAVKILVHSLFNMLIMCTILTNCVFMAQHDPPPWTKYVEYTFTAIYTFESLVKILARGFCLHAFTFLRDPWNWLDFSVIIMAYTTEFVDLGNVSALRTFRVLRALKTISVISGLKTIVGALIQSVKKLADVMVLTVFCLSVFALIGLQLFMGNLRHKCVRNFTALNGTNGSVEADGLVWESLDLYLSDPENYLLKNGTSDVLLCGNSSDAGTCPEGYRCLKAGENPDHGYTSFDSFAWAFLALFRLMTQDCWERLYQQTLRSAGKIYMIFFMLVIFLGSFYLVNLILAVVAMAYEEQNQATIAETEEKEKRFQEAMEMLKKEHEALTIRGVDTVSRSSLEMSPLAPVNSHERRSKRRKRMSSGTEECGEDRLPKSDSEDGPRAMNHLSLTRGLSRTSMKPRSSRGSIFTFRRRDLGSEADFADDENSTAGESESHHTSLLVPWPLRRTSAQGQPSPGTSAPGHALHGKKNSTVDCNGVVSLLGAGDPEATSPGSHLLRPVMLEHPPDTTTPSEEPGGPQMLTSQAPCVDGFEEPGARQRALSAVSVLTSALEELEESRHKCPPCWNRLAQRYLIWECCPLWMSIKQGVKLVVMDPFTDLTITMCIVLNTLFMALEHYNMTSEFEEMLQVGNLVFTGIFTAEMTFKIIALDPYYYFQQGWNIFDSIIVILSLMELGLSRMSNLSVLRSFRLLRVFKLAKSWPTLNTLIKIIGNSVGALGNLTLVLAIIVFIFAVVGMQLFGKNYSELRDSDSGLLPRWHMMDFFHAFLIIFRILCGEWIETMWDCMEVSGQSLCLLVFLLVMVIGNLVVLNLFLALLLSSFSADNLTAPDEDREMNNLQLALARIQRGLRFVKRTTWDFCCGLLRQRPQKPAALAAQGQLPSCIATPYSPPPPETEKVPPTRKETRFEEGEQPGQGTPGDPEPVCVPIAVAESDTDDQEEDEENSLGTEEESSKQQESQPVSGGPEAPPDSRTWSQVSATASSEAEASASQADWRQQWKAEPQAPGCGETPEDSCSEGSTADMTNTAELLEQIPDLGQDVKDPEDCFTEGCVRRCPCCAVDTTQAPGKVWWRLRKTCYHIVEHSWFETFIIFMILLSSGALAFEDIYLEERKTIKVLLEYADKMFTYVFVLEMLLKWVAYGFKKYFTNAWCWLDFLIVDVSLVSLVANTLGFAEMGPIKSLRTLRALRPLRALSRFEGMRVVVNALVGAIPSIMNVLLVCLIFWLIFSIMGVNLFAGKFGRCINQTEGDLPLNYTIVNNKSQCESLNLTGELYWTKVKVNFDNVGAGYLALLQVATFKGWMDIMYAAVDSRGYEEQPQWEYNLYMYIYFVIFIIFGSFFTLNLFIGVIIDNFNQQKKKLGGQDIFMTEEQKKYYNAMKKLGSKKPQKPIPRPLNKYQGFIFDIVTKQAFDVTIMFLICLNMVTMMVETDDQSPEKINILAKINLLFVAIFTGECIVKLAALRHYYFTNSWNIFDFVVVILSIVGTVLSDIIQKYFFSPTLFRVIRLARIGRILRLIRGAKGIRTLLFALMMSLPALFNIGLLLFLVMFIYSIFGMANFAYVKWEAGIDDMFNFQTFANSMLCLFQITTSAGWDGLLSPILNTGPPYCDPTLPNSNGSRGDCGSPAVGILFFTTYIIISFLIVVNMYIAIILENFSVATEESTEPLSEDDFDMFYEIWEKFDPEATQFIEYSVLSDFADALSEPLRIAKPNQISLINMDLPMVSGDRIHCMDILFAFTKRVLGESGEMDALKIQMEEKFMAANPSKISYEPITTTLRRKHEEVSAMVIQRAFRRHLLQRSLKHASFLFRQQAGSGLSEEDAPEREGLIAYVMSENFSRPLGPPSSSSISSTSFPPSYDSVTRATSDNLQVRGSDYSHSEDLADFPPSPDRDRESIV
Sequence of Acetylcholine receptor subunit epsilon (Q04844 whole entry): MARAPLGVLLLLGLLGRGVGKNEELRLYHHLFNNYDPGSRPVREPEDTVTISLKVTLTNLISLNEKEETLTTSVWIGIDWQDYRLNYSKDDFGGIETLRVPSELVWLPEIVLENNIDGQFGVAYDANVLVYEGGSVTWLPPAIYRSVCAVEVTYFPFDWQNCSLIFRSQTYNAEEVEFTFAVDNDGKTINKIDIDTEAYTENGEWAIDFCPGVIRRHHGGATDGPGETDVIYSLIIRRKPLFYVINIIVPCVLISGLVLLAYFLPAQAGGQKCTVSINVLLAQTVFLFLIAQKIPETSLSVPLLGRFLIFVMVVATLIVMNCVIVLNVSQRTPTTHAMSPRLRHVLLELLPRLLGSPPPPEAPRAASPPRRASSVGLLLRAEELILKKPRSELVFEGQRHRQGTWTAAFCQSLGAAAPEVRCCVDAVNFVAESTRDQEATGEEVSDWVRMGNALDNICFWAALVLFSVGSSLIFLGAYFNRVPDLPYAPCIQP
Sequence of Sodium channel protein type 8 subunit alpha (Q9UQD0 whole entry): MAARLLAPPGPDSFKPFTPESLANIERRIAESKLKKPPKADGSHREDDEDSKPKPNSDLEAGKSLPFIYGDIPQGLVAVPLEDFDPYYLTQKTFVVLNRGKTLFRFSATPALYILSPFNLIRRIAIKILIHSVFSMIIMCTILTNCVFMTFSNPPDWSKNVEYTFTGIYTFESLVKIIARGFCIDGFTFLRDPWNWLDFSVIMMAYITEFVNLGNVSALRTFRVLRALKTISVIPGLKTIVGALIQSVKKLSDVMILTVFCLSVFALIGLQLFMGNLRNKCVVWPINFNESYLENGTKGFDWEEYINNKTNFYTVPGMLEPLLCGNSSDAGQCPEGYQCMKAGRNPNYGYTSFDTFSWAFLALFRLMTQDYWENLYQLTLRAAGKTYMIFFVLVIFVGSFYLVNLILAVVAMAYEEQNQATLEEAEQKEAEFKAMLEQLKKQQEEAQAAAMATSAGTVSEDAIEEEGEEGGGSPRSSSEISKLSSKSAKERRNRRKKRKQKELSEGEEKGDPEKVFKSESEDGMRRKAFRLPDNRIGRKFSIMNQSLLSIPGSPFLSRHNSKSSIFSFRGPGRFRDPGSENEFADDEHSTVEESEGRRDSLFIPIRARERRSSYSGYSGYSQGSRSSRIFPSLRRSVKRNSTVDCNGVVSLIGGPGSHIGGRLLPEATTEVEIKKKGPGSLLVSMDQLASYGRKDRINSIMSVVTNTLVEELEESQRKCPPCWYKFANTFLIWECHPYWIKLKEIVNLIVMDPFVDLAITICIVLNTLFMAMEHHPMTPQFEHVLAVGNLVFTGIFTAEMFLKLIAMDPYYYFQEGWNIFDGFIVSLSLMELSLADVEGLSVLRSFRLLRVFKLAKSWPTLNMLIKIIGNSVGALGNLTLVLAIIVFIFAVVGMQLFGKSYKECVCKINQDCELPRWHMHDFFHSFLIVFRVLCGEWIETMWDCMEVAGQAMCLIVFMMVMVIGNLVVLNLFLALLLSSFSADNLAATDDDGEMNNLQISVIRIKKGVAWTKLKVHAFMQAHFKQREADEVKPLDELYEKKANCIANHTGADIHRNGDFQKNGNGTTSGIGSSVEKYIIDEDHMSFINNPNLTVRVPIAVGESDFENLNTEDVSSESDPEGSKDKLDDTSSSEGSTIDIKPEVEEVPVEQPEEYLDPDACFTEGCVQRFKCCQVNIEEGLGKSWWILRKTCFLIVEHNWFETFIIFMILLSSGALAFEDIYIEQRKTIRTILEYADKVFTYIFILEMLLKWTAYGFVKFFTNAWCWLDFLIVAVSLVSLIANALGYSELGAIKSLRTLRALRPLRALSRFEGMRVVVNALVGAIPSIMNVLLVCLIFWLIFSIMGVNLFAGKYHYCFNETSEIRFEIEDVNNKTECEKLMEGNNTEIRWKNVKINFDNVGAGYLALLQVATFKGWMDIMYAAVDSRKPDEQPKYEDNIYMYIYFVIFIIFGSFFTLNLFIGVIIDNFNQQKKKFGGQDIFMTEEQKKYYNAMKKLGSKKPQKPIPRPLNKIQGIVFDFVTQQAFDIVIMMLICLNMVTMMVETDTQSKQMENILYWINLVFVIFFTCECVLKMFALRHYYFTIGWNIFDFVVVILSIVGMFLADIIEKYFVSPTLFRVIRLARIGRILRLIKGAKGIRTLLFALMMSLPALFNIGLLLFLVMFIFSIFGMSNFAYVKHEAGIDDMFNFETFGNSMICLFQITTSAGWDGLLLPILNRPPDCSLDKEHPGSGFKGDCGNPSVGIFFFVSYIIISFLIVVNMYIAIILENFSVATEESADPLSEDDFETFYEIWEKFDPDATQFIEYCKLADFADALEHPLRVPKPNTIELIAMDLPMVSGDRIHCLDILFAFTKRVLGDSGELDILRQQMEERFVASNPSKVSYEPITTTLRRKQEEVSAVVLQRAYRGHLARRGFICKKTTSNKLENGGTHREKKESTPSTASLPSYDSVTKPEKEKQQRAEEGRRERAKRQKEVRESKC

Question: For “H-SDGTFTSDLSKQMEEEAVRLFIEWLKNGGPSGAPPPS-NH2”, which half-life [1] is on record?
Answer: The half-life was 2 min.

Question: What does the source list for `CC[C@H](C)[C@H](NC(=O)[C@H](Cc1ccc(O)cc1)NC(=O)[C@H](Cc1cnc[nH]1)NC(=O)[C@@H]1CSSC[C@H](NC(=O)[C@@H]2CCCN2C(=O)[C@H](CCCNC(=N)N)NC(=O)[C@H](CC(C)C)NC(=O)[C@H](CC(=O)O)NC(=O)[C@@H]2CCCN2C(=O)[C@H](CCCCN)NC(=O)CNC(=O)CN)C(=O)N[C@@H](Cc2cnc[nH]2)C(=O)N2CCC[C@H]2C(=O)N2CCC[C@H]2C(=O)N1)C(=O)N1CCC[C@H]1C(=O)N[C@@H](CCCNC(=N)N)C(=O)N1CCC[C@H]1C(=O)N[C@@H](CCCCN)C(=O)N1CCC[C@H]1C(=O)N[C@@H](CCCNC(=N)N)C(=O)O` (H-GGKPDLRPCHPPCHYIPRPKPR-OH; disulfide 9-13)?
Answer: IC50 [2]: 50 nM; LD50 [3]: 0.33 mg/kg

Question: Which results are given for `CSCC[C@@H]1NC(=O)CNC(=O)[C@H](CCC(=O)O)NC(=O)[C@@H]2CSSC[C@H](NC(=O)[C@@H](N)Cc3ccc(O)cc3)C(=O)N[C@@H](CCC(N)=O)C(=O)N[C@@H](CCCCN)C(=O)N[C@@H](Cc3c[nH]c4ccccc34)C(=O)N[C@@H](CCSC)C(=O)N[C@@H](Cc3c[nH]c4ccccc34)C(=O)N[C@@H]([C@@H](C)O)C(=O)N[C@H]3CSSC[C@H](NC(=O)[C@H](C(C)C)NC1=O)C(=O)N[C@@H](CCCNC(=N)N)C(=O)N[C@@H](CC(C)C)C(=O)N[C@@H](Cc1c[nH]c4ccccc14)C(=O)N[C@H](C(=O)N[C@@H](CCCCN)C(=O)N[C@@H](CCCCN)C(=O)N[C@@H](CCCCN)C(=O)N[C@@H](CC(C)C)C(=O)N[C@@H](Cc1c[nH]c4ccccc14)C(=O)O)CSSC[C@H](NC(=O)[C@H](CCCCN)NC(=O)[C@H](CCCNC(=N)N)NC(=O)[C@H](CCC(=O)O)NC(=O)[C@H](CO)NC(=O)[C@H](CC(=O)O)NC3=O)C(=O)N2`?
Answer: IC50 [4]: 41 nM; IC50 [5]: 79 nM; IC50 [6]: 26 nM

Question: Which IC50 [7] does the source give for H-KEFLHPSKVDLPR-OH [SOR-C13] here?
Answer: The IC50 was 14 nM.
